Experimental data: US7012089B2, “[1,4]Diazocino[7,8,1-hi]indole derivatives as antipsychotic and antiobesity agents” (Wyeth, priority 2002, dated 2006)
Where two headings read alike, the source gives them in different places.

Key:
[1] = target: T1, human 5-hydroxytryptamine-2C (h-5-HT2C) receptor (Homo sapiens, UniProt P28335); experiment: [125I]DOI binding to membranes of CHO cells expressing the h-5-HT2C receptor
T1 sequence (P28335 33-458): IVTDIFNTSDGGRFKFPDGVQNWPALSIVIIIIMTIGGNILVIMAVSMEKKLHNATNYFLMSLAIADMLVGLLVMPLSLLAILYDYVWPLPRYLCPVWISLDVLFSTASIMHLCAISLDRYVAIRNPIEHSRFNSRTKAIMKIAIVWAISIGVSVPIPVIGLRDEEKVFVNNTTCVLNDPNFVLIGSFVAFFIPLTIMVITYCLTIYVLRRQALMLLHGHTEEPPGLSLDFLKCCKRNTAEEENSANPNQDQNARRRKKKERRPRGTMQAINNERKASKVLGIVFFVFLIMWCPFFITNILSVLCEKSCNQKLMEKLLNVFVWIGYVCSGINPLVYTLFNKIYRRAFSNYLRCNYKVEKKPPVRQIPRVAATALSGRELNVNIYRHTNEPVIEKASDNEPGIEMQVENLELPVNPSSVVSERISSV

human 5-HT2C receptor = target: T2, human 5-HT2C receptor (Homo sapiens, UniProt P28335); experiment: 5-HT2C receptor-stimulated calcium mobilization (FLIPR) in CHO cells; type: cell-based; conditions: for Emax: CHO, read-out: 5-HT2C Function Emax (%)
T2 sequence (P28335 33-458): T1 sequence (P28335 33-458)

[2] = 5-HT2c Affinity KI (nM), displacement of [125I]DOI, CHO cell membranes

Row | SMILES | Ki [1, 2] | EC50 (human 5-HT2C receptor) | Emax (human 5-HT2C receptor) | melting point | Ki ([1]; read-out: 5-HT2c Affinity KI)
1 | CN1CCc2cccc3c4c(n(c23)CC1)CCC4 [Example 1, 3-Methyl-2,3,4,5,10,11-hexahydro-1H,9H-cyclopenta[b][1,4]diazocino[7,8,1-hi]indole] | 35 nM | 48 nM | 45% | 128 to 130 °C | 
2 | CN1CCc2cccc3c4c(n(c23)CC1)CCCC4 [Example 5] | 10 nM | 68 nM | 50% | 129 to 131 °C | 
3 | CN1CCc2c(Cl)ccc3c4c(n(c23)CC1)CCC4 [Example 12, 6-Chloro-3-methyl-2,3,4,5,10,11-hexahydro-1H,9H-cyclopenta[b][1,4]diazocino[7,8,1-hi]indole] |  |  |  | 138 to 140 °C | 250 nM
4 | CN1CCc2c(Cl)ccc3c4c(n(c23)CC1)CCCC4 [Example 13, 6-Chloro-3-methyl-2,3,4,5,9,10,11,12-octahydro-1H-[1,4]diazocino[7,8,1-jk]carbazole] | 34 nM |  |  | 128 to 130 °C | 
5 | CN1CCc2c(Cl)ccc3c4c(n(c23)CC1)CCCCC4 [Example 14, 6-Chloro-3-methyl-2,3,4,5,10,11,12,13-octahydro-1H,9H-cyclohepta[b][1,4]diazocino[7,8,1-hi]indole] |  |  |  | 132 to 134 °C | 250 nM
